Reference: US20060211670A1, “Antitumoral18a-homoestra-1,3,5(10)-trien-3yl 2-substituted sulfamates” (priority 2003, published 2006)

Tests used:
[1] = tested on: DU145 human prostate tumor cells; assay: Inhibition of cell proliferation (crystal violet), DU145; format: cell-based; settings: DU145, 4 days incubation
Experimental: (§1) Cell cultures of the following cell lines were prepared in 96-well microtiter plates: • 1. MaTu/ADR multidrug-resistant human breast tumor cells (Epo GmbH Berlin), 5000 cells/well. • 2. HCT116 human colon tumor cells (ATCC CCL-247), 3000 cells/well. • 3. NCl-H460 human non-small-cell lung cancer cells (ATCC HTB-177), 3000 cells/well. • 4. DU145 human prostate tumor cells (ATCC HTB-81), 5000 cells/well. • 5. HMVEC human primary dermal microvascular endothelial cells, 7500 cells/well.
(§2) After 24 hours of incubation in a cell culture incubator at 37° C., the cells of a microtiter plate were stained with crystal violet (reference plate), while the cells in the test plates were incubated for 4 days with the test substances in the concentrations […], as well as with the DMSO solvent by itself (solvent control). The cell proliferation was determined by staining cells with crystal violet. The extinction of the crystal violet was determined by photometry at 595 nm. The percentage of the change in the cell number in the test plates was determined after the extinction values were normalized to the reference plate (0%) and to the solvent control (100%). The semi-maximal inhibition of the cell growth (IC50) was determined as the substance concentration, in which 50% of the cell number of the solvent controls were present.

[2] = tested on: MaTu/ADR multidrug-resistant human breast tumor cells; assay: Inhibition of cell proliferation (crystal violet), MaTu/ADR; format: cell-based; settings: 4 days incubation
Experimental: as §1, §2

[3] = tested on: HMVEC human primary dermal microvascular endothelial cells; assay: Inhibition of cell proliferation (crystal violet), HMVEC; format: cell-based; settings: 4 days incubation
Experimental: as §1, §2

[4] = tested on: NCl-H460 human non-small-cell lung cancer cells; assay: Inhibition of cell proliferation (crystal violet), NCl-H460; format: cell-based; settings: NCl-H460, 4 days incubation
Experimental: as §1, §2

[5] = tested on: HCT116 human colon tumor cells; assay: Inhibition of cell proliferation (crystal violet), HCT116; format: cell-based; settings: HCT116, 4 days incubation
Experimental: as §1, §2

[6] = biological target: T1, microtubular protein (tubulin) from pig brains (Sus scrofa, UniProt P02550+P02554); assay: Inhibition of tubulin polymerization (turbidimetry at 340 nm); format: biochemical; settings: pig brain microtubular protein 1 mg/ml, 0.25 mmol GTP, 37° C.
T1 construct: microtubular protein was purified from pig brains via cydic assembling/disassembling; from tissue; host or cells: pig brain
T1 sequence (P02550 whole entry): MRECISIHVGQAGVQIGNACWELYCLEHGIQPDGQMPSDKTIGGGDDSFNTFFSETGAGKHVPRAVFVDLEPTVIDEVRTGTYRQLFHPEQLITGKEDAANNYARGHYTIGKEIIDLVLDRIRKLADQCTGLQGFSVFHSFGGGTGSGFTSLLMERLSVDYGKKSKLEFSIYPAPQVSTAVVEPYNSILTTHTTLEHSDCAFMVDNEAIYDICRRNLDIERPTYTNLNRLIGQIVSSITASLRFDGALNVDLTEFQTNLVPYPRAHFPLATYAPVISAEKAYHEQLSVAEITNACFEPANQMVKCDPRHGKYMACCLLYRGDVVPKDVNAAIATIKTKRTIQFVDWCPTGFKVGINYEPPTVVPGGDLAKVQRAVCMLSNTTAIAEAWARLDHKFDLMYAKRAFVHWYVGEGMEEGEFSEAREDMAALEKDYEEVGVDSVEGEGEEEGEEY
T1 sequence (P02554 whole entry): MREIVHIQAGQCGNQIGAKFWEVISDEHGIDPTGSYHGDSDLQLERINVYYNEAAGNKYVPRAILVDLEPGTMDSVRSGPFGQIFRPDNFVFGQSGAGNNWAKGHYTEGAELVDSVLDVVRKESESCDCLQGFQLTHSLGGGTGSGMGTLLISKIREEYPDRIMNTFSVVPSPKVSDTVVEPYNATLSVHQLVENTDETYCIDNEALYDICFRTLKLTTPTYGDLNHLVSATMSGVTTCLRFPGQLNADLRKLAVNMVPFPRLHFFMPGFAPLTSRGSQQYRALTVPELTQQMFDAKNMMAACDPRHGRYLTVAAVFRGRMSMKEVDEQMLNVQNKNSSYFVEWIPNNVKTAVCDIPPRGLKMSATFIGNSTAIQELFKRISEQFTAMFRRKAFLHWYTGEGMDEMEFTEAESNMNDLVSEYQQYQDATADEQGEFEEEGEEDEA
Experimental: The in-vitro testing of the tubulin polymerization influence was performed as follows:
The buffer system used had the following composition: 20 mmol of PIPES (1,4-piperazine-diethane-sulfonic acid, pKa 6.8), 80 mmol of NaCl, 0.5 mmol of MgCl2, 1 mmol of EGTA (ethylene glycol-bis-(2-aminoethylene)-tetraacetic acid).
For active ingredient testing, protein concentrations of 1 mg/ml (about 10^−5 mmol of tubulin) were used. The determination of protein was carried out according to the Lowry Method (Lowry et al. J. Biol. Chem. 1951, 193, 265-75) with bovine serum albumin as a standard. The assembling of microtubuli was carried out in the presence of 0.25 mmol of GTP and heating the samples to 37° C.
The microtubulus formation was examined by means of turbidimetry at a wavelength of 340 nm.
Testing of the active ingredients was carried out by their addition at the beginning of the assembling or in the state of equilibrium. Deviations of turbidity curves from the control characterize its activity. To monitor action and to evaluate the measured turbidity values, a transmission electron microscopic study (CEM 902 A, Zeiss/Oberkochen) of the assemblates was always performed after negative staining with 1% aqueous uranyl acetate.

Compound	IC50 ([1]; Homo sapiens, DU-145, 96 h) [nM]	IC50 ([2]; Homo sapiens, 96 h) [nM]	IC50 ([3]; Homo sapiens, 96 h) [nM]	IC50 ([4]; Homo sapiens, 96 h) [nM]	IC50 ([5]; Homo sapiens, HCT-116, 96 h) [nM]	IC50 [1] [nM]	IC50 [2] [nM]	IC50 [3] [nM]	IC50 [4] [nM]	IC50 [5] [nM]	IC50 [6] [nM]
CC(=O)O[C@H]1C(=O)[C@@]2(C)[C@H]([C@H](OC(=O)c3ccccc3)[C@]3(O)C[C@H](OC(=O)[C@H](O)[C@@H](NC(=O)c4ccccc4)c4ccccc4)C(C)=C1C3(C)C)[C@]1(OC(C)=O)CO[C@@H]1C[C@@H]2O [Taxol, reference compound]	4	400	4	4	4	–	–	–	–	–	–
CC[C@]12CC[C@@H]3c4cc(OC)c(OS(N)(=O)=O)cc4CC[C@H]3[C@@H]1CC[C@@H]2OC [(5), 2,17β-Dimethoxy-18a-homoestra-1,3,5(10)-trien-3-yl Sulfamate]	–	–	–	–	–	190	< 100	< 100	130	< 100	–
CCOc1cc2c(cc1OS(N)(=O)=O)CC[C@@H]1[C@@H]2CC[C@]2(CC)[C@@H](O)CC[C@@H]12 [(2), 2-Ethoxy-17β-hydroxy-18a-homoestra-1,3,5(10)trien-3-yl sulfamate]	–	–	–	–	–	900	100	500	300	400	–
CCc1cc2c(cc1OS(N)(=O)=O)CC[C@@H]1[C@@H]2CC[C@]2(CC)[C@@H](OS(N)(=O)=O)CC[C@@H]12 [(6), 2-Ethyl-18a-homoestra-1,3,5(10)-triene-3,17β-diyl Sulfamate]	–	–	–	–	–	180	100	< 100	180	180	–
CC[C@@]12CCC[C@H]1[C@@H]1CCc3cc(OS(N)(=O)=O)c(OC)cc3[C@H]1CC2 [(4), 2-Methoxy-18a-homoestra-1,3,5(10)-trien-3-yl sulfamate]	600	450	600	500	600	–	–	–	–	–	1800
CC[C@]12CC[C@@H]3c4cc(OC)c(OS(N)(=O)=O)cc4CC[C@H]3[C@@H]1CC[C@@H]2O [(1), 17β-Hydroxy-2-methoxy-18a-homoestra-1,3,5(10)-trien-3-yl sulfamate]	150	< 100	< 100	< 100	< 100	–	–	–	–	–	500
COc1cc2c(cc1O)CC[C@@H]1[C@@H]2CC[C@]2(C)[C@@H](O)CC[C@@H]12 [2-Methoxyestradiol, reference compound]	–	–	–	–	–	1900	200	2200	1800	1100	2700
